Measured values published in patent US9302999B2, “Substituted triazoles as herbicides” (E. I. DU PONT DE NEMOURS AND COMPANY, priority 2012, dated 2016).

How the values were obtained:
Format in all cases: in vivo
[1] = test system: waterhemp_RES2 (ALS/HPPD resistant common waterhemp, Amaranthus rudis); assay: Test F postemergence: waterhemp_RES2; details: scale 0 to 100
From the text: (§1) Seeds of plant species selected from corn (Zea mays), soybean (Glycine max), velvetleaf (Abutilon theophrasti), lambsquarters (Chenopodium album), poinsettia, wild (wild poinsettia, Euphorbia heterophylla), pigweed, palmer (palmer pigweed, Amaranthus palmeri), waterhemp (common waterhemp, Amaranthus rudis), surinam grass (Brachiaria decumbens), crabgrass, Brazil (Brazilian crabgrass, Digitaria horizontalis), panicum, fall (fall panicum Panicum dichotomiflorum), crabgrass, large (large crabgrass, Digitaria sanguinalis), foxtail, giant (giant foxtail, Setaria faberii), foxtail, green (green foxtail Setaria viridis), goosegrass (Eleusine indica), ragweed (common ragweed, Ambrosia elatior), barnyardgrass (Echinochloa crus-galli), sandbur (southern sandbur, Cenchrus echinatus), arrowleaf sida (Sida rhombifolia), ryegrass, Italian (Italian ryegrass, Lolium multiflorum), dayflower, VA (Virginia (VA) dayflower, Commelina virginica), field bindweed (Convolvulus arvensis), cocklebur (common cocklebur, Xanthium strumarium), morningglory (Ipomoea coccinea), nightshade (eastern black nightshade, Solanum ptycanthum), kochia (Kochia scoparia), nutsedge, yellow (yellow nutsedge, Cyperus esculentus), johnsongrass (Sorghum halepense), smartweed (ladysthumb smartweed, Polygonum persicaria), and beggarticks (hairy beggarticks, Bidens pilosa), were planted into a silt loam soil and treated preemergence with test chemicals formulated in a non-phytotoxic solvent mixture which included a surfactant. At the same time, plants selected from these crop and weed species and also pigweed (Amaranthus retroflexus), waterhemp_RES1 (ALS/Triazine resistant common waterhemp, Amaranthus rudis) and waterhemp_RES2 (ALS/HPPD resistant common waterhemp, Amaranthus rudis) were planted in pots containing a planting medium comprising spaghnum peat moss, vermiculite, wetting agent and starter nutrients treated with postemergence applications of some of the test chemicals formulated in the same manner. Plants ranged in height from 2 to 18 cm for postemergence treatments (1- to 4-leaf stage).
(§2) Treated plants and controls were maintained in a greenhouse for 14 to 21 days, after which time all species were compared to controls and visually evaluated. Plant response ratings, summarized in Table E, are based on a scale of 0 to 100 where 0 is no effect and 100 is complete control. A dash (-) response means no test result.

[2] = test system: waterhemp_RES1 (ALS/Triazine resistant common waterhemp, Amaranthus rudis); assay: Test F postemergence: waterhemp_RES1; details: scale 0 to 100
From the text: as §1, §2

[3] = test system: morningglory (Ipomoea coccinea); assay: Test E pre-/postemergence: morningglory; details: Preemergence, scale 0 to 100
From the text: Seeds of plant species selected from corn (Zea mays), soybean (Glycine max), velvetleaf (Abutilon theophrasti), lambsquarters (Chenopodium album), poinsettia, wild (wild poinsettia, Euphorbia heterophylla), pigweed, palmer (palmer pigweed, Amaranthus palmeri), waterhemp (common waterhemp, Amaranthus rudis), smartweed (ladysthumb smartweed, Polygonum persicaria), surinam grass (Brachiaria decumbens), crabgrass, large (large crabgrass, Digitaria sanguinalis), crabgrass, Brazil (Brazilian crabgrass, Digitaria horizontalis), panicum, fall (fall panicum, Panicum dichotomiflorum), foxtail, giant (giant foxtail, Setaria faberii), foxtail, green (green foxtail, Setaria viridis), goosegrass (Eleusine indica), johnsongrass (Sorghum halepense), ragweed (common ragweed, Ambrosia elation), barnyardgrass (Echinochloa crus-galli), sandbur (southern sandbur, Cenchrus echinatus), arrowleaf sida (Sida rhombifolia), ryegrass, Italian (Italian ryegrass, Lolium multiflorum), dayflower, (VA) (Virginia dayflower, Commelina virginica), field bindweed (Convolvulus arvensis), cocklebur (common cocklebur, Xanthium strumarium), morningglory (Ipomoea coccinea), nightshade (eastern black nightshade, Solanum ptycanthum), kochia (Kochia scoparia), nutsedge, yellow (yellow nutsedge, Cyperus esculentus) and beggarticks (hairy beggarticks, Bidens pilosa) were planted into a silt loam soil and treated preemergence with test chemicals formulated in a non-phytotoxic solvent mixture which included a surfactant. At the same time, plants selected from these crop and weed species were planted in pots containing a growing medium comprising spaghnum peat moss, vermiculite, wetting agent and starter nutrients and treated with postemergence applications of some of the test chemicals formulated in the same manner. Plants ranged in height from 2 to 18 cm for postemergence treatments (1- to 4-leaf stage).
as §2

[4] = test system: Waterhemp; assay: Test C preemergence: waterhemp; details: scale 0 (no effect) to 100 (complete control)
[5] = test system: smallflower umbrella sedge (CYPDI, Cyperus difformis); assay: Test G paddy, alone and in combination: smallflower umbrella sedge; details: evaluated after 14 days
Experimental: (§3) Seeds of smallflower umbrella sedge (CYPDI, Cyperus difformis) and ducksalad (HETLI, Heteranthera limosa) were sown on the soil surface in two separate quadrants of 11 cm tubs filled with steam pasteurized Tama soil. Simultaneously, plantings of barnyardgrass (ECHCG, Echinochloa crus-galli) and japonica rice (ORYSP, Oryza sativa) were established in separate “plug” flats. Plants were grown in a greenhouse using supplemental lighting to maintain a photoperiod of approximately 16 h; daytime and nighttime temperatures were approximately 27-30° C. and 19-22° C., respectively. After 8 days, barnyardgrass plants were transplanted to one of the remaining quadrants of the tub, and the water level was adjusted to a final depth of 3 cm. Herbicide application timing was targeted at the 2.0 to 2.5 leaf stage and the plants were treated with test chemicals formulated in a non-phytotoxic solvent. Treated plants and controls were maintained in a greenhouse for 14 days, after which time all species were compared to controls and visually evaluated. Plant response ratings are summarized in Tables G1 through G3, and are based on a scale of 0 to 100 where 0 is no effect and 100 is complete control. A dash (-) response means no test result.

[6] = test system: japonica rice (ORYSP, Oryza sativa); assay: Test G paddy, alone and in combination: japonica rice; details: evaluated after 14 days
Experimental: as §3

[7] = test system: ducksalad (HETLI, Heteranthera limosa); assay: Test G paddy, alone and in combination: ducksalad; details: evaluated after 14 days
Experimental: as §3

[8] = test system: barnyardgrass (ECHCG, Echinochloa crus-galli); assay: Test G paddy, alone and in combination: barnyardgrass; details: evaluated after 14 days
Experimental: as §3

Cc1nn(-c2ccc(C(F)(F)F)c(F)c2)nc1Cc1ccnc(C(F)(F)F)c1 [Compound 162]
Plant response rating, Waterhemp, Res2 ([1]; 4 g ai/ha): 75 | Plant response rating, Waterhemp, Res2 ([1]; 8 g ai/ha): 90 | Plant response rating, Waterhemp, Res2 ([1]; 16 g ai/ha): 90 | Plant response rating, Waterhemp, Res2 ([1]; 31 g ai/ha): 95 | Plant response rating, Waterhemp, Res2 ([1]; 62 g ai/ha): 100 | Plant response rating, Waterhemp, Res1 ([2]; 4 g ai/ha): 70 | Plant response rating, Waterhemp, Res1 ([2]; 8 g ai/ha): 90 | Plant response rating, Waterhemp, Res1 ([2]; 16 g ai/ha): 90 | Plant response rating, Waterhemp, Res1 ([2]; 31 g ai/ha): 95 | Plant response rating, Waterhemp, Res1 ([2]; 62 g ai/ha): 95

Cc1nn(-c2ccc(C(F)(F)F)cc2)nc1Cc1ccnc(C(F)(F)F)c1 [Compound 47, 4-[[5-methyl-2-[4-(trifluoromethyl)phenyl]-2H-1,2,3-triazol-4-yl]methyl]-2-(trifluoromethyl)pyridine]
Plant response rating: Morningglory ([3]; 16 g ai/ha): 15 | Plant response rating: Morningglory ([3]; 31 g ai/ha): 30 | Plant response rating: Morningglory ([3]; 62 g ai/ha): 35 | Plant response rating: Morningglory ([3]; 125 g ai/ha): 40 | Plant response rating: Morningglory ([3]; 250 g ai/ha): 65

CCOc1nn(-c2ccc(Br)cc2)nc1Cc1ccnc(C(F)(F)F)c1 [Compound 189]
Plant response rating, Waterhemp ([4]; 16 g ai/ha): 90 | Plant response rating, Waterhemp ([4]; 31 g ai/ha): 98

Cc1nn(-c2ccc(F)c(F)c2)nc1Oc1ccnc(C(F)(F)F)c1 [Compound 145]
Plant response rating, Waterhemp, Res2 ([1]; 125 g ai/ha): 85 | Plant response rating, Waterhemp, Res1 ([2]; 125 g ai/ha): 90

CCc1nn(-c2ccc(F)cc2)nc1Oc1ccnc(C(F)(F)F)c1 [Compound 166]
Plant response rating, Waterhemp ([4]; 31 g ai/ha): 55

Cc1nn(-c2ccc(F)cc2)nc1Oc1ccnc(C(F)(F)F)c1 [Compound 129, 4-[[2-(4-fluorophenyl)-5-methyl-2H-1,2,3-triazol-4-yl]oxy]-2-(trifluoromethyl)pyridine]
CYPDI plant response rating (scale of 0 to 100) ([5]; Rate 16 g/ha): 0 | CYPDI plant response rating (scale of 0 to 100) ([5]; Rate 31 g/ha): 75 | CYPDI plant response rating (scale of 0 to 100) ([5]; Rate 32 g/ha): 48 | ORYSP plant response rating (scale of 0 to 100) ([6]; Rate 16 g/ha): 0 | ORYSP plant response rating (scale of 0 to 100) ([6]; Rate 31 g/ha): 5 | ORYSP plant response rating (scale of 0 to 100) ([6]; Rate 32 g/ha): 10 | HETLI plant response rating (scale of 0 to 100) ([7]; Rate 16 g/ha): 0 | HETLI plant response rating (scale of 0 to 100) ([7]; Rate 31 g/ha): 40 | HETLI plant response rating (scale of 0 to 100) ([7]; Rate 32 g/ha): 25 | ECHCG plant response rating (scale of 0 to 100) ([8]; Rate 16 g/ha): 0 | ECHCG plant response rating (scale of 0 to 100) ([8]; Rate 31 g/ha): 15 | ECHCG plant response rating (scale of 0 to 100) ([8]; Rate 32 g/ha): 5 | Plant response rating: Morningglory ([3]; 8 g ai/ha): 0 | Plant response rating: Morningglory ([3]; 16 g ai/ha): 0 | Plant response rating: Morningglory ([3]; 31 g ai/ha): 0 | Plant response rating: Morningglory ([3]; 62 g ai/ha): 40 | Plant response rating: Morningglory ([3]; 125 g ai/ha): 50

Cc1nn(-c2ccc(F)cc2)nc1Cc1ccnc(C(F)(F)F)c1 [Compound 16, 4-[[2-(4-fluorophenyl)-5-methyl-2H-1,2,3-triazol-4-yl]methyl]-2-(trifluoromethyl)pyridine]
CYPDI plant response rating (scale of 0 to 100) ([5]; Rate 8 g/ha): 85 | CYPDI plant response rating (scale of 0 to 100) ([5]; Rate 16 g/ha): 85 | ORYSP plant response rating (scale of 0 to 100) ([6]; Rate 8 g/ha): 10 | ORYSP plant response rating (scale of 0 to 100) ([6]; Rate 16 g/ha): 15 | HETLI plant response rating (scale of 0 to 100) ([7]; Rate 8 g/ha): 0 | HETLI plant response rating (scale of 0 to 100) ([7]; Rate 16 g/ha): 60 | ECHCG plant response rating (scale of 0 to 100) ([8]; Rate 8 g/ha): 25 | ECHCG plant response rating (scale of 0 to 100) ([8]; Rate 16 g/ha): 35
